Measured values: ChEMBL document CHEMBL3638739, “Medical composition for treatment or prophylaxis of glaucoma” (2014)

Target: Prostaglandin E2 receptor EP2 subtype (Homo sapiens, UniProt P43116)
Assay: Binding Assay: Measurement of EP2 receptor binding affinity was carried out according to the method of Abramovitz et al. (Biochimica et Biophysica Acta, 1483, 285 (2000)). […] The membrane fraction was recovered on glass fiber filter paper (GF/B, available from Whatman PLC) using a cell harvester (M30R, available from Brandel Inc.), and after washing with a buffer solution (10 mM MES-KOH (pH 6.0), 10 mM MgCl2), radioactivity was measured with a liquid scintillation analyzer (2000CA, available from Packard).
Format: cell membranes
Conditions: hek293

Sequence of Prostaglandin E2 receptor EP2 subtype (P43116 whole entry): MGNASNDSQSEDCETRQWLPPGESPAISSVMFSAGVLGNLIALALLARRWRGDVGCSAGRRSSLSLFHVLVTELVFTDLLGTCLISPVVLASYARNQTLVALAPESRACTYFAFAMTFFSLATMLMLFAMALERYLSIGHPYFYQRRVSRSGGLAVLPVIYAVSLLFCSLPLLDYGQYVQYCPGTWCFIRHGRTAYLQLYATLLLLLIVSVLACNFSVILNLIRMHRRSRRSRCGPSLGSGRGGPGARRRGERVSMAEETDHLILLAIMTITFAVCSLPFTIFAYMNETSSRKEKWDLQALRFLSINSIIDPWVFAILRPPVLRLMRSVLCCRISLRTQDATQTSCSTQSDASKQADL

Row | Ki | SMILES
1 | 3.1 nM | COc1ccc(-c2cc(-c3ccccc3)[nH]c2C(=O)Nc2ccc(C(=O)NO)o2)cc1
2 | 2.8 nM | O=C(O)c1[nH]c(-c2ccoc2)cc1-c1ccc(O)cc1
3 | 1.1 nM | O=C(NO)c1ccc(CNC(=O)c2[nH]c(-c3ccoc3)cc2-c2ccc(F)cc2)cc1
4 | 9.4 nM | O=C(NO)c1ccc(CNC(=O)c2[nH]c(-c3ccc(O)cc3)cc2-c2ccoc2)cc1
5 | 13 nM | O=C(NO)c1ccc(CNC(=O)c2[nH]c(-c3cccs3)cc2-c2ccc(O)cc2)cc1

Row | SMILES | Ki
6 | COC(=O)c1ccc(CNC(=O)c2[nH]c(-c3cccs3)cc2-c2ccc(F)cc2)nc1 | 3.8 nM
7 | O=C(NO)c1ccc(CNC(=O)c2[nH]c(-c3ccccc3)cc2-c2ccc(F)cc2)o1 | 1.5 nM
